Measurements taken from BigSolDB 2.1.

CC(=O)c1cccc(O)c1
solubility (mole fraction)
Details | in benzene | in ethanol | in ethyl acetate | in isobutanol | in isopropanol | in methanol | in methyl acetate | in n-butanol | in n-propanol | in water
289.15 K | 0.00506 | 0.166 | 0.158 | 0.119 | 0.176 | 0.156 | 0.16 | 0.154 | 0.152 | 0.00073
292.15 K | 0.00532 | 0.175 | 0.168 | 0.126 | 0.184 | 0.169 | 0.171 | 0.163 | 0.161 | 0.00078
295.15 K | 0.00707 | 0.19 | 0.18 | 0.146 | 0.201 | 0.185 | 0.182 | 0.172 | 0.18 | 0.001
298.15 K | 0.00848 | 0.209 | 0.191 | 0.166 | 0.22 | 0.203 | 0.197 | 0.189 | 0.199 | 0.00106
301.15 K | 0.0122 | 0.225 | 0.199 | 0.184 | 0.236 | 0.22 | 0.209 | 0.203 | 0.211 | 0.00113
304.15 K | 0.015 | 0.245 | 0.214 | 0.205 | 0.256 | 0.239 | 0.229 | 0.221 | 0.23 | 0.00154
307.15 K | 0.0198 | 0.263 | 0.235 | 0.235 | 0.275 | 0.255 | 0.253 | 0.242 | 0.252 | 0.00172
310.15 K | 0.0238 | 0.287 | 0.254 | 0.265 | 0.3 | 0.279 | 0.274 | 0.261 | 0.274 | 0.00199
313.15 K | 0.0281 | 0.308 | 0.277 | 0.293 | 0.324 | 0.302 | 0.298 | 0.284 | 0.299 | 0.00245
316.15 K | 0.0308 | 0.335 | 0.304 | 0.32 | 0.349 | 0.328 | 0.324 | 0.309 | 0.329 | 0.00291
319.15 K | 0.037 | 0.361 | 0.333 | 0.348 | 0.372 | 0.349 | 0.346 | 0.335 | 0.36 | 0.00362
322.15 K | 0.0453 | 0.391 | 0.364 | 0.38 | 0.401 | 0.383 | 0.376 | 0.368 | 0.395 | 0.00456
325.15 K | 0.0614 | 0.42 | 0.384 | 0.421 | 0.431 | 0.409 | 0.407 | 0.402 | 0.425 | 0.00562
